{
  "source": "patent US8048638B2",
  "about": "“Biomarkers of liver injury” (priority 2005, dated 2011)",
  "key": {"[1]": {"tested_on": "Rats", "experiment": "Plasma ASS and ALT accumulation after carbon tetrachloride injection (chlorinated hydrocarbon liver injury)", "type": "in vivo, rat", "settings": "for Plasma ASS increase relative to control (FIG. 30A): rat model; for Plasma ALT accumulation / Plasma ASS increase compared to controls: rats; for Plasma ASS increase compared to controls: 0.5 ml/kg CCL4 in vegetable oil", "method": "Rats (n=6) were injected with 0.5 ml/kg of carbon tetrachloride (CCL4) in vegetable oil. Plasma arginosuccinate synthetase (ASS) and alanine transaminase (ALT) accumulation was measured 1 hr and 24 hr after injection. ASS increased over 15-fold compared to controls after 1 hr and over 50-fold compared to controls after 24 hr (p<0.0001), as shown in FIG. 30A."}, "[2]": {"tested_on": "Rats", "experiment": "Serum ASS, CPS-1, SULT2A1 and ALT levels after repeated MDMA injections (Ecstasy liver injury)", "type": "in vivo, rat", "settings": "for Serum ASS compared to control serum levels / Serum SULT2A1 compared to control serum levels: i.p.; for Serum ASS compared to control serum levels: 10 mg/kg injections at 1.5 hr intervals", "method": "Serum arginosuccinate synthetase (ASS), carbamoylphosphate synthase-1 (CPS-1) and sulfur transferase isoform A1 (SULT2A1) levels were measured after repeated injections of 10 mg/kg of methylenedioxyacetamine (MDMA) at 1.5 hr intervals."}, "[3]": {"tested_on": "Rats", "settings": "Western blot", "method": "The analysis shown in Table 1, is performed by Western blot using antibody available through various sources. Typically, 25 μg protein are loaded with two identical sets of 5 samples, separated in 4-20% polyacrylamide gel mini-slabs, and transferred onto PVDF membrane. The membrane is cut in 2 pieces, blocked, probed with two different antibodies, visualized using ECL Plus Kit (Pierce, Inc) and scanned. The membranes are stripped using stripping buffer and re-probed with other two antibody. After visualizing the bands with EDCL Plus Kit and scanning, membranes are stripped again, probed with aII-spectrin antibody and developed using alkaline phosphatase detection method. For accurate assessment of molecular mass of developed proteins, two sets of protein standards are added and developed simultaneously (Magic Markers, Invitrogen, Inc).\nBlood is collected from rat heart at the end of experimental procedures. Plasma is obtained from K-EDTA preserved blood by centrifugation. 20 μl of plasma or serum is mixed with 180 μl of RIPA buffer (with proteases inhibitors), vortexed, incubated on ice for 30 min and centrifuged. Supernatants are removed, aliquots mixed with sample buffer 1:1, heated and loaded onto gel."}},
  "data": [
    {"smiles": "ClC(Cl)(Cl)Cl", "note": "[carbon tetrachloride]", "values": [
      {"measurement": "Plasma ASS increase relative to control (FIG. 30A)", "setting": "[1]; 1 hr after injection", "result": 15, "unit": "times"},
      {"measurement": "Plasma ASS increase relative to control (FIG. 30A)", "setting": "[1]; 24 hr post injection", "result": 50, "unit": "times"},
      {"measurement": "Plasma ALT accumulation", "setting": "[1]; 0.5 ml/kg CCL4, 1 hr after injection", "result": "did not increase significantly"},
      {"measurement": "Plasma ALT accumulation", "setting": "[1]; 0.5 ml/kg CCL4, 24 hr after injection, p=0.041", "result": "significant increase"},
      {"measurement": "Plasma ASS increase compared to controls", "setting": "[1]; 1 hr after injection", "result": "over 15 fold"},
      {"measurement": "Plasma ASS increase compared to controls", "setting": "[1]; 24 hr after injection, p<0.0001", "result": "over 50 fold"}
    ]},
    {"smiles": "CNC(C)Cc1ccc2c(c1)OCO2", "note": "(stereo not drawn) [MDMA, methylenedioxyacetamine]", "values": [
      {"measurement": "Serum ASS compared to control serum levels", "setting": "[2]; total 20 mg/kg, p<0.01", "result": "significant increase"},
      {"measurement": "Serum ASS compared to control serum levels", "setting": "[2]; total 40 mg/kg, p<0.001", "result": "significant increase"},
      {"measurement": "Serum SULT2A1 compared to control serum levels", "setting": "[2]; total 20 mg/kg, p<0.001", "result": "significant increase"},
      {"measurement": "Serum SULT2A1 compared to control serum levels", "setting": "[2]; total 40 mg/kg, p<0.0001", "result": "significant increase"},
      {"measurement": "Serum carbamoylphosphate synthase-1 (CPS-1) levels", "setting": "[2]; repeated i.p. injection, total 40 mg/kg, 24 hr after last injection, PAGE", "result": "increased levels"},
      {"measurement": "Alanine transferase (ALT)", "setting": "[2]; repeated i.p. injections of 10 mg/kg", "result": "No increase"}
    ]},
    {"smiles": "CCO", "note": "[alcohol]", "values": [
      {"measurement": "ALT in plasma", "setting": "[3]; chronic alcohol rats", "result": "increased"},
      {"measurement": "GST-BB in plasma", "setting": "[3]; rats chronically treated with alcohol", "result": "significant increase"},
      {"measurement": "Intact ASS protein (46 kDa) in plasma", "setting": "[3]; rats with chronic alcoholic administration", "result": "absent"}
    ]}
  ]
}
